We go through 3 substances from paper PMC4249368 (Antimicrobial Agents and Chemotherapy, 2014).

The nature of experiment [1]: SPR binding to lipid bilayers on Biacore L1 chip. The following applies: 10 μM, normalized to molecular weight and RULipid, Fig. 3B, n = 3. The protocol:
Lipid stock solutions were prepared in chloroform and mixed at the described mass composition of POPC, POPC/POPG (8:2, wt/wt) and POPC/POPE (8:2, wt/wt) ([33]), and the chloroform was evaporated as previously described ([34]). The lipids were resuspended in 1 ml of filtered (0.22-μm pore size) running buffer (phosphate-buffered saline [PBS]; pH 7.3) and then sonicated for 25 min in 5-min intervals. Small unilamellar vesicles (SUVs) were prepared by extrusion through a polycarbonate filter with a 50-nm pore diameter ([35]).
SPR experiments were carried out with a Biacore T200 system (GE Health, Australia) using a Biacore vesicle capture (L1) sensor chip, which has lipophilic groups covalently attached to carboxymethylated dextran that facilitates direct lipid bilayer deposition ([34], [36]). All measurements were undertaken at a temperature of 25°C to maintain the lipid bilayer fluidity ([34]). SUVs at a total lipid concentration of 0.5 mg/ml were immediately passed across the chip surface for 60 min at a low flow rate of 2 μl/min, following three 30-s injections of 20 mM 3-cholamidopropyl-dimethylammonio-1-propane sulfonate (CHAPS) solution at a high flow rate of 30 μl/min to completely remove the captured vesicles from the sensor chip. To remove any multilamellar structures from the lipid surface and to stabilize the baseline, 10 mM NaOH was injected for 1 min at 50 μl/min. The coverage extent of the surface was later determined by a 5-min injection of 0.1 mg/ml bovine serum albumin (BSA) at a flow rate of 10 μl/min.
The antibiotics were serially diluted in running buffer and then injected sequentially from the lowest (0.01 μM) to the highest (10 μM) concentration at a flow rate of 20 μl/min for 180 s, followed by a dissociation of 300 s and a 1-min regeneration with 10 mM HCl at a flow rate of 10 μl/min. SPR experiments were performed in triplicate. The actual amount of antibiotic bound to each lipid bilayer was corrected by subtraction of the bulk refractive index difference (buffer control) and then normalized by dividing the antibiotic-bound resonance units (RUBound) obtained in the SPR sensorgrams (see Fig. 3A, below) by the corresponding antibiotic molecular weight and the resonance units of the individual lipid vesicle captured on the chip surface (RULipid) (see Fig. S1 in the supplemental material) by using the following equation: normalized antibiotic bound = (10^3 × RUBound)/(molecular weight × RULipid). Normalization against molecular weight and RULipid was necessary, as SPR units are mass dependent and RULipid values vary according to lipid type ([37]).
A general note: Surface plasmon resonance follows binding to a sensor surface in real time, without labels.

On the set-up of experiment [2]: method as in PMID 23872123, PMID 9791177, PMID 16531990. The conditions noted are these: phospholipid bilayers; cited from earlier work.
Details of experiment [3]: method as in PMID 23872123, PMID 9791177, PMID 16531990. The following applies: Lipid II pyrophosphate moiety; cited from earlier work.
The test system of experiment [4] is MSSA ATCC 25923. The protocol:
MSSA ATCC 25923 was purchased from the American Type Culture Collection (Manassas, VA). Mueller-Hinton broth (MHB; Bacto Laboratories Pty. Ltd.) was used to grow MSSA for determination of in vitro antibacterial activity in the presence and absence of 50% human serum (Life Technologies Australia, Melbourne, Australia) and time-kill assays. Luria-Bertani (LB) medium (Difco) and MHB adjusted with Ca^2+ (25 mg/liter) and Mg^2+ (12.5 mg/liter) (CA-MHB) were used for bacterial growth in the membrane depolarization assay and TEM, respectively. The phospholipids used for SPR analysis, 1-palmitoyl-2-oleoyl-sn-glycero-3-phosphoglycerol (POPG), 1-palmitoyl-2-oleoyl-sn-glycero-3-phosphocholine (POPC), and 1-palmitoyl-2-oleoyl-sn-glycero-3-phosphoethanolamine (POPE), were purchased from Auspep Pty. Ltd. (Melbourne, Australia).
MICs against MSSA ATCC 25923 were measured by broth microdilution according to the Clinical and Laboratory Standards Institute (CLSI) M7-A7 methodology ([30]). Briefly, serial 2-fold dilutions of each antibiotic were added into Costar nontreated polystyrene 96-well plates, and each well was inoculated with 50 μl of MSSA in MHB to a final concentration of approximately 5 × 10^5 CFU/ml. […] The dilution representing the MIC and two of the more and less concentrated dilutions were plated out onto Trypticase soy agar plates and enumerated to determine viable CFU/ml ([31]).

For experiment [5], the system named is MSSA ATCC 25923. As to the kind of experiment: Membrane depolarization assay with DiSC3(5). It is filed as cell-based, Staphylococcus aureus. The following applies: 30 min treatment; for membrane depolarization (result in words): 0.1 to 30 μM, Fig. 4, n = 3. The protocol:
Antibiotic-induced bacterial cytoplasmic membrane depolarization was determined by using the fluorescent dye 3,3-dipropylthiacarbocyanine [DiSC3(5); Sigma-Aldrich, Australia] as previously described ([38]) with a high-throughput modification. Briefly, mid-logarithmic-phase MSSA ATCC 25923 cells were collected by centrifugation (5,000 × rpm, 10 min), washed once and diluted to approximately 5 × 10^7 CFU/ml in buffer (5 mM HEPES, 5 mM glucose; pH 7.2). The cell suspension was incubated with 0.4 μM DiSC3(5) until dye uptake was maximal, as indicated by a stable reduction in fluorescence of assay medium. KCl at 100 mM was added to equilibrate the cytoplasmic and external K^+ concentrations. A 90-μl aliquot of cell suspension was transferred into an Optiplate 96-well white microplate (PerkinElmer Corp., Australia), and 10 μl of antibiotic was added, to yield a series of solutions ranging from 0.1 to 30 μM. A blank with only cell suspension and dye was used for background subtraction. The fluorescence intensity was monitored in real time by using a BMG Labtech PolarStar Omega multimode reader fitted with 620-10 and 665-10 excitation and emission filters, respectively, at an excitation wavelength of 622 nm and an emission wavelength of 670 nm. The membrane depolarization assays were performed in triplicate, and the fluorescence leakage (FL) was defined by the following equation: FL = (FF − FB) − (FI − FB). Here, FF was the final fluorescence intensity in assay medium after 30 min of treatment with antibiotic, FI was the initial fluorescence intensity of the cell suspension, and FB was the fluorescence intensity of the blank.

For experiment [6], the system named is MSSA ATCC 25923. The method, then: MICs against MSSA ATCC 25923 were measured by broth microdilution according to the Clinical and Laboratory Standards Institute (CLSI) M7-A7 methodology ([30]). Briefly, serial 2-fold dilutions of each antibiotic were added into Costar nontreated polystyrene 96-well plates, and each well was inoculated with 50 μl of MSSA in MHB to a final concentration of approximately 5 × 10^5 CFU/ml. […] The dilution representing the MIC and two of the more and less concentrated dilutions were plated out onto Trypticase soy agar plates and enumerated to determine viable CFU/ml ([31]). […]
25923 in MHB media in the presence and absence of Human serum (10% and 50%) in
Corning NonTC microtitre plates (CLS3370)
a The MBCs were determined by plating out the clear wells onto an agar plate and were incubated at
37°C overnight. Each colony represents one viable bacterium. […]
This is another data set of the same source.

Where [7] appears, read: MHB, broth microdilution CLSI M7-A7, ~5 × 10^5 CFU/ml, 24 h, 37°C, Costar nontreated polystyrene 96-well plates.

pKd: −log10 of the molar value. Read-outs that look alike come from different tables or passages of the source. No end group written: not given here.

What is called pKd is the negative decadic logarithm of the Kd, by convention in mol/L. One may read the MIC as the least concentration at which growth counts as inhibited.

Consider nisin, for which, in experiment [1], the “normalized antibiotic bound to the three lipid bilayers (result in words)” value was “no binding to either anionic or zwitterionic phospholipid bilayers”. For the same substance, the results for the pKd in experiment [2] and in experiment [3] were 4.00 and 8.00, respectively. The MIC against MSSA ATCC 25923 [4] (setting [7]) is 32 µg/mL. Moreover, in the experiment with MSSA ATCC 25923 [5], the “membrane depolarization (result in words)” value is “dramatic membrane depolarization at the MIC and above”. In addition, the “concentration at which membrane depolarization occurs” value with MSSA ATCC 25923 [5] (DiSC3(5), normalized to citropin 1.1 at 10 μM, ramoplanin 3× MIC gives similar extent as […] MIC nisin) turned out to be 0.25 × MIC.

Consider teicoplanin, for which, in experiment [1], the “normalized antibiotic bound to the three lipid bilayers (result in words)” value is “bound preferentially to the anionic membrane over zwitterionic membranes”. The “MBC, 10% Human serum” value against MSSA ATCC 25923 [6] (Table S1, MHB with 10% human serum) was determined as 0.25 µg/mL. The “MBC, 50% Human serum” value against MSSA ATCC 25923 [6] (Table S1, MHB with 50% human serum) came out at 0.5 µg/mL. Moreover, the “MBC, MHB” value in the experiment on MSSA ATCC 25923 [6] (Table S1, MHB without serum, clear wells plated onto agar, 37°C overnight) stood at 4 µg/mL. In the experiment with MSSA ATCC 25923 [4] (setting [7]), this substance displayed an MIC of 1 µg/mL. In addition, the “MIC, MHB” value in the experiment on MSSA ATCC 25923 [4] (Table S1, MHB without serum, Corning NonTC microtitre plates (CLS3370)) came out at 2 µg/mL. Moreover, the “membrane depolarization (result in words)” value with MSSA ATCC 25923 [5] was “measurable but minor fluorescence leakage at concentrations significantly higher than the MIC”.

As to GLFDVIKKVASVIGGL-NH2 [citropin 1.1], in the experiment with MSSA ATCC 25923 [4] (ATCC 25923, 24 h), the minimum inhibitory concentration (MIC) amounted to 32 µg/mL.
